Common to all, as to type: in vivo
Data set [1] deals with Huaidao (rice cultivar). The data set can be described thus: Seedling stage sealing experiment for water-seeding (crop safety). To be noted: 120 g a.i./ha, 15 days, fresh weight control rate; for Huaidao (rice cultivar) plant damage level: seedling stage sealing; for Huaidao (rice cultivar) plant damage level (growth control rate): spray, seedling stage sealing for water-seeding. The essentials:
(§1)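 Scores (0 = no effect to 9 = dead) reflect fresh-weight control rate 15 days after spray application in greenhouse at 15, 30, 60 or 120 g a.i./ha, mean of three replicates. Seeds were broadcast and soil-covered in pots held moist in water-filled cultivation boxes.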

The test system of data set [2] is Echinochloa crusgalli. Put plainly: Seedling stage sealing experiment for water-seeding. To be noted: 120 g a.i./ha, 15 days, fresh weight control rate.
In data set [3] the test system is Echinochloa phyllopogon. The data set is described as above. To be noted: 120 g a.i./ha, 15 days, fresh weight control rate. The method in brief: as §1
Setting [4] is: spray, seedling stage sealing for water-seeding.

As for `C=C(C)c1c(NC(=O)[C@H]2C(=O)N(C)C[C@@H]2c2cccc(C(F)(F)F)c2)cnn1C` [407′], in data set [1], the “Huaidao (rice cultivar) plant damage level” value was determined as 0. Further, the “Echinochloa crusgalli activity level (growth control rate)” value (“Echinochloa crusgalli activity level” below) in data set [2] (seedling stage sealing) was 9. In addition, the “Echinochloa phyllopogon activity level (growth control rate)” value (“Echinochloa phyllopogon activity level” for short) in data set [3] (seedling stage sealing) turned out to be 9.

Consider `CCn1ncc(NC(=O)[C@H]2C(=O)N(C)C[C@@H]2c2cccc(C(F)(F)F)c2)c1C1CC1` [408′], for which the “Huaidao (rice cultivar) plant damage level” value in data set [1] stood at 0. Moreover, in data set [2] (seedling stage sealing), the “Echinochloa crusgalli activity level” value came out at 9. In data set [3] (seedling stage sealing), the “Echinochloa phyllopogon activity level” value amounted to 9.

In the case of `CN1C[C@H](c2cccc(C3CC3)c2)[C@@H](C(=O)Nc2cnn(C(F)F)c2Cl)C1=O` [413′], the “Huaidao (rice cultivar) plant damage level” value in data set [1] turned out to be 0. Also, the “Echinochloa crusgalli activity level” value in data set [2] (seedling stage sealing) amounted to 9. For the same molecule, the “Echinochloa phyllopogon activity level” value in data set [3] (seedling stage sealing) is 9.

With `Cc1cc(C)cc([C@H]2CNC(=O)[C@@H]2C(=O)Nc2cnn(C)c2Cl)c1` [416′], the “Huaidao (rice cultivar) plant damage level” value in data set [1] amounted to 0. Besides, in data set [2] (seedling stage sealing), the “Echinochloa crusgalli activity level” value was 9. In data set [3] (seedling stage sealing), the “Echinochloa phyllopogon activity level” value was 6 (Level 6: growth control rate greater than or equal to 70% and less than 80%).

Regarding `Cc1cc(C)cc([C@H]2CN(C)C(=O)[C@@H]2C(=O)Nc2cnn(C(C)C)c2Cl)c1` [419′], in data set [1], the “Huaidao (rice cultivar) plant damage level” value was 0. Moreover, in data set [2] (seedling stage sealing), the “Echinochloa crusgalli activity level” value turned out to be 9. Besides, the “Echinochloa phyllopogon activity level” value in data set [3] (seedling stage sealing) worked out at 9.

As for `COCn1ncc(NC(=O)[C@H]2C(=O)N(C)C[C@@H]2c2cc(C)cc(C)c2)c1Cl` [422′], the “Huaidao (rice cultivar) plant damage level” value in data set [1] is given as 1 (Level 1: growth control rate less than 10%). Further, in data set [2] (seedling stage sealing), the “Echinochloa crusgalli activity level” value worked out at 9. Moreover, the “Echinochloa phyllopogon activity level” value in data set [3] (seedling stage sealing) is reported as 9.

With `COCCn1ncc(NC(=O)[C@H]2C(=O)N(C)C[C@@H]2c2cc(C)cc(C)c2)c1Cl` [423′], in data set [1], the “Huaidao (rice cultivar) plant damage level” value is listed as 0. In addition, the “Echinochloa crusgalli activity level” value in data set [2] (seedling stage sealing) is reported as 9. The “Echinochloa phyllopogon activity level” value in data set [3] (seedling stage sealing) was 6 (Level 6: growth control rate greater than or equal to 70% and less than 80%).

Consider `Cc1cc(C)cc([C@H]2CN(C)C(=O)[C@@H]2C(=O)Nc2cnn(C)c2I)c1` [426′], for which the “Huaidao (rice cultivar) plant damage level” value in data set [1] came out at 0. Also, in data set [2] (seedling stage sealing), the “Echinochloa crusgalli activity level” value is 9. In data set [3] (seedling stage sealing), the “Echinochloa phyllopogon activity level” value came out at 9.

Turning to `Cc1cc(C)cc([C@H]2CN(C)C(=O)[C@@H]2C(=O)Nc2cnn(C)c2C(F)(F)F)c1` [427′], the “Huaidao (rice cultivar) plant damage level” value in data set [1] was 2 (Level 2: growth control rate greater than or equal to 10% and less than 20%). In data set [2] (seedling stage sealing), the “Echinochloa crusgalli activity level” value was 9. For the same molecule, the “Echinochloa phyllopogon activity level” value in data set [3] (seedling stage sealing) was 9.

In the case of `CCn1ncc(NC(=O)[C@H]2C(=O)N(C)C[C@@H]2c2cc(C)cc(C)c2)c1C1CC1` [432′], the “Huaidao (rice cultivar) plant damage level” value in data set [1] turned out to be 0. Besides, the “Echinochloa crusgalli activity level” value in data set [2] (seedling stage sealing) was 9. Besides, the “Echinochloa phyllopogon activity level” value in data set [3] (seedling stage sealing) was determined as 9.

For `COC(=O)c1c(NC(=O)[C@H]2C(=O)N(C)C[C@@H]2c2cc(C)cc(C)c2)cnn1C` [433′], the “Huaidao (rice cultivar) plant damage level” value in data set [1] was 0. Moreover, the “Echinochloa crusgalli activity level” value in data set [2] (seedling stage sealing) is 9. The “Echinochloa phyllopogon activity level” value in data set [3] (seedling stage sealing) is 6 (Level 6: growth control rate greater than or equal to 70% and less than 80%).

For the molecule `CCc1cc(C)cc([C@H]2CN(C)C(=O)[C@@H]2C(=O)Nc2cnn(C(F)F)c2Cl)c1` [438′], the “Huaidao (rice cultivar) plant damage level” value in data set [1] was 2 (Level 2: growth control rate greater than or equal to 10% and less than 20%). The “Echinochloa crusgalli activity level” value in data set [2] (seedling stage sealing) turned out to be 9. Moreover, the “Echinochloa phyllopogon activity level” value in data set [3] (seedling stage sealing) came to 9.

`CCc1cc(CC)cc([C@H]2CN(C)C(=O)[C@@H]2C(=O)Nc2cnn(C)c2Cl)c1` [439′]: the “Huaidao (rice cultivar) plant damage level” value in data set [1] was 2 (Level 2: growth control rate greater than or equal to 10% and less than 20%). Further, the “Echinochloa crusgalli activity level” value in data set [2] (seedling stage sealing) was 9. Further, the “Echinochloa phyllopogon activity level” value in data set [3] (seedling stage sealing) was found to be 9.

`CN1C[C@H](c2cc(Br)cc(Br)c2)[C@@H](C(=O)Nc2cnn(C)c2Cl)C1=O` [440′]: in data set [1], the “Huaidao (rice cultivar) plant damage level” value is 0. The “Echinochloa crusgalli activity level” value in data set [2] (seedling stage sealing) is on record as 9. The “Echinochloa phyllopogon activity level” value in data set [3] (seedling stage sealing) is listed as 9.

For the molecule `CN1C[C@H](c2cc(Cl)cc(Cl)c2)[C@@H](C(=O)Nc2cnn(C)c2Cl)C1=O` [441′], in data set [1], the “Huaidao (rice cultivar) plant damage level” value worked out at 0. Also, the “Echinochloa crusgalli activity level” value in data set [2] (seedling stage sealing) is given as 9. For the same molecule, the “Echinochloa phyllopogon activity level” value in data set [3] (seedling stage sealing) came out at 9.

In the case of `CN1C[C@H](c2cc(Cl)cc(Cl)c2)[C@@H](C(=O)Nc2cnn(C(F)F)c2Cl)C1=O` [442′], the “Huaidao (rice cultivar) plant damage level” value in data set [1] worked out at 0. For the same molecule, in data set [2] (seedling stage sealing), the “Echinochloa crusgalli activity level” value is 8 (Level 8: growth control rate greater than or equal to 90% and less than 100%). In addition, the “Echinochloa phyllopogon activity level” value in data set [3] (seedling stage sealing) was 8 (Level 8: growth control rate greater than or equal to 90% and less than 100%).

For the molecule `CN1C[C@H](c2cc(Cl)cc(Cl)c2)[C@@H](C(=O)Nc2cnn(C)c2C2CC2)C1=O` [443′], the “Huaidao (rice cultivar) plant damage level (growth control rate)” value (“Huaidao … (growth control rate)” below) in data set [1] is reported as 0. Also, the “Echinochloa crusgalli activity level” value in data set [2] (setting [4]) stood at 9. For the same molecule, the “Echinochloa phyllopogon activity level” value in data set [3] (setting [4]) is 8 (Level 8: growth control rate greater than or equal to 90% and less than 100%).

With `COc1cc([C@H]2CN(C)C(=O)[C@@H]2C(=O)Nc2cnn(C(F)F)c2Cl)cc(C(F)(F)F)c1` [445′], the “Huaidao … (growth control rate)” value in data set [1] amounted to 0. The “Echinochloa crusgalli activity level” value in data set [2] (setting [4]) is 9. In addition, in data set [3] (setting [4]), the “Echinochloa phyllopogon activity level” value is 9.

For `COc1c(C(F)(F)F)ccc([C@H]2CN(C)C(=O)[C@@H]2C(=O)Nc2cnn(C)c2Cl)c1F` [446′], the “Huaidao … (growth control rate)” value in data set [1] is reported as 0. Besides, the “Echinochloa crusgalli activity level” value in data set [2] (setting [4]) stood at 9. For the same molecule, the “Echinochloa phyllopogon activity level” value in data set [3] (setting [4]) came out at 9.

Turning to `Cc1cc([C@H]2CN(C)C(=O)[C@@H]2C(=O)Nc2cnn(C)c2Cl)cc(C)c1C` [447′], the “Huaidao … (growth control rate)” value in data set [1] was found to be 0. Further, the “Echinochloa crusgalli activity level” value in data set [2] (setting [4]) came to 9. Further, in data set [3] (setting [4]), the “Echinochloa phyllopogon activity level” value came out at 9.

With `Cc1cc([C@H]2CN(C)C(=O)[C@@H]2C(=O)Nc2cnn(C)c2C2CC2)cc(C)c1C` [448′], in data set [1], the “Huaidao … (growth control rate)” value was 0. In addition, the “Echinochloa crusgalli activity level” value in data set [2] (setting [4]) is listed as 9. Also, in data set [3] (setting [4]), the “Echinochloa phyllopogon activity level” value worked out at 9.

For `CN1C[C@H](c2cccc3c2OC(F)(F)O3)[C@@H](C(=O)Nc2cnn(C)c2Cl)C1=O` [450′], the “Huaidao … (growth control rate)” value in data set [1] is given as 0. The “Echinochloa crusgalli activity level” value in data set [2] (setting [4]) is 9. Besides, the “Echinochloa phyllopogon activity level” value in data set [3] (setting [4]) stood at 9.

On to `CCCn1ncc(NC(=O)[C@H]2C(=O)N(C)C[C@@H]2c2cccc(C)c2)c1Cl` [462′], for which, in data set [1], the “Huaidao … (growth control rate)” value is reported as 0. Besides, in data set [2] (setting [4]), the “Echinochloa crusgalli activity level” value was 9. In addition, the “Echinochloa phyllopogon activity level” value in data set [3] (setting [4]) turned out to be 9.

Turning to `Cc1cccc([C@H]2CN(C)C(=O)[C@@H]2C(=O)Nc2cnn(C(F)F)c2C)c1` [465′], the “Huaidao … (growth control rate)” value in data set [1] is 2 (Level 2: growth control rate greater than or equal to 10% and less than 20%). In data set [2] (setting [4]), the “Echinochloa crusgalli activity level” value is recorded as 9. Further, the “Echinochloa phyllopogon activity level” value in data set [3] (setting [4]) is 9.

Consider `C=Cc1c(NC(=O)[C@H]2C(=O)N(C)C[C@@H]2c2cccc(C)c2)cnn1C(F)F` [468′], for which the “Huaidao … (growth control rate)” value in data set [1] is recorded as 0. Moreover, in data set [2] (setting [4]), the “Echinochloa crusgalli activity level” value worked out at 9. Moreover, the “Echinochloa phyllopogon activity level” value in data set [3] (setting [4]) amounted to 9.

On to `CN1C[C@H](c2cccc(C(F)(F)F)c2)[C@@H](C(=O)Nc2cnn(C)c2C(F)F)C1=O` [478′], for which the “Huaidao … (growth control rate)” value in data set [1] is reported as 0. In addition, in data set [2] (setting [4]), the “Echinochloa crusgalli activity level” value came out at 9. Moreover, the “Echinochloa phyllopogon activity level” value in data set [3] (setting [4]) stood at 9.

Consider `CN1C[C@H](c2cccc(C(F)(F)F)c2)[C@@H](C(=O)Nc2cnn(C)c2S(C)(=O)=O)C1=O` [480′], for which the “Huaidao … (growth control rate)” value in data set [1] is on record as 1 (Level 1: growth control rate less than 10%). The “Echinochloa crusgalli activity level” value in data set [2] (setting [4]) is given as 9. Besides, in data set [3] (setting [4]), the “Echinochloa phyllopogon activity level” value turned out to be 9.

Turning to `COc1cccc([C@H]2CN(C)C(=O)[C@@H]2C(=O)Nc2cnn(C)c2C(F)(F)F)c1` [485′], the “Huaidao … (growth control rate)” value in data set [1] was 0. In addition, the “Echinochloa crusgalli activity level” value in data set [2] (setting [4]) was found to be 9. In data set [3] (setting [4]), the “Echinochloa phyllopogon activity level” value came to 9.

Take `Cc1ccc([C@H]2CN(C)C(=O)[C@@H]2C(=O)Nc2cnn(C(F)F)c2Cl)cc1` [486′]: the “Huaidao … (growth control rate)” value in data set [1] is 2 (Level 2: growth control rate greater than or equal to 10% and less than 20%). For the same molecule, the “Echinochloa crusgalli activity level” value in data set [2] (setting [4]) came out at 9. In addition, the “Echinochloa phyllopogon activity level” value in data set [3] (setting [4]) is listed as 9.

For the molecule `Cc1ccc([C@H]2CN(C)C(=O)[C@@H]2C(=O)Nc2cnn(C(F)F)c2Cl)cc1C` [487′], in data set [1], the “Huaidao … (growth control rate)” value was 2 (Level 2: growth control rate greater than or equal to 10% and less than 20%). For the same molecule, in data set [2] (setting [4]), the “Echinochloa crusgalli activity level” value was found to be 9. Further, the “Echinochloa phyllopogon activity level” value in data set [3] (setting [4]) amounted to 9.

For `CN1C[C@H](c2cc(F)cc(F)c2)[C@@H](C(=O)Nc2cnn(C)c2C(F)(F)F)C1=O` [489′], in data set [1], the “Huaidao … (growth control rate)” value is 0. The “Echinochloa crusgalli activity level” value in data set [2] (setting [4]) is given as 9. Besides, the “Echinochloa phyllopogon activity level” value in data set [3] (setting [4]) was found to be 9.

For the molecule `Cc1cc(C)cc([C@H]2CN(C)C(=O)[C@@H]2C(=O)Nc2cnn(C(F)F)c2C)c1` [494′], the “Huaidao … (growth control rate)” value in data set [1] is 2 (Level 2: growth control rate greater than or equal to 10% and less than 20%). Also, the “Echinochloa crusgalli activity level” value in data set [2] (setting [4]) came out at 9. For the same molecule, the “Echinochloa phyllopogon activity level” value in data set [3] (setting [4]) is given as 9.
